From paper PMC5674027 (Scientific Reports, 2017)

Experiments:
[1] = target: interaction between claudin-4 and C-CPE (Homo sapiens, UniProt O14493); assay: biochemical; assay type: binding
[2] = target: recombinant human claudin-4 protein (Homo sapiens, UniProt O14493); assay: biochemical; assay type: binding
C-CPE = assay type: binding, Clostridium perfringens
[3] = test system: claudin-4 (HT1080/CLDN4 cells); assay type: cell-based
[4] = test system: claudin-3 (HT1080/CLDN3 cells); assay type: cell-based
Caco-2 cell monolayer = assay type: cell-based, human
Method: Caco-2 cells were allowed to differentiate for 10 to 14 days on Transwell filters (diameter, 6.5 mm; pore size, 0.4 µm; Corning, Corning, MA, USA) before their use in TER and paracellular flux assays. Caco-2 cell monolayers had TER values of 600–800 Ω•cm^2. TER values were measured by using a Millicell-ERS epithelial volt–ohm meter (Millipore Corporation, Billerica, MA, USA). For the paracellular tracer flux assay, 100 µM dialysed FD-4 was added to the medium in the upper chamber. After 1 h of incubation, the medium was collected from the bottom chamber, and the amount of FD-4 was measured with a TriStar LB 941 microplate reader (Berthold Technologies).

Caco-2 cells = assay type: cell-based, human; details: 1–100 µM, 24 h; n = 3
Method: For analysis of thiostrepton-induced cytotoxicity on Caco-2 cells, a lactate dehydrogenase (LDH) release assay was performed according to the manufacturer’s instructions. After being treated with thiostrepton for 24 h, the level of LDH released into the culture medium was analysed. Treatment with 0.2% Tween-20 was used as a 100% lysis control. Absorbance was measured at a wavelength of 570 nm by using a TriStar LB 941 microplate reader (Berthold Technologies).

claudin-1 [5] = assay type: cell-based, human; details: n = 3
claudin-3 = assay type: cell-based, human; details: n = 3
claudin-4 [6] = assay type: cell-based, human; details: n = 3
CLDN1 = assay type: cell-based, human; details: n = 3
CLDN3 = assay type: cell-based, human; details: n = 3
CLDN4 = assay type: cell-based, human; details: n = 3
claudin-1 [7] = assay type: cell-based, human; details: 100 µM, 24 h
claudin-4 [8] = assay type: cell-based, human; details: 100 µM, 24 h
occludin = assay type: cell-based, human; details: 100 µM, 24 h
ZO-1 = assay type: cell-based, human; details: 100 µM, 24 h
Caco-2 cell monolayers = assay type: cell-based, human; details: 100 µM thiostrepton, apical sulfo-NHS-SS-biotin (606.7 Da) 10 min; Caco-2 monolayer
Method: Figure 5 Thiostrepton effect on paracellular tracer permeability. Caco-2 cell monolayers were treated with 100 µM thiostrepton or left untreated (control) and then apically incubated with sulfo-NHS-SS-biotin (606.7 Da; red) and counterstained with anti-ZO-1 antibody (green; TJ stain) and DAPI (blue; nuclear stain). […] Bar = 10 µm.
Localisation of claudins-1 and -4, occludin and ZO-1 on Caco-2 cells was assessed by immunofluorescence microscopy. Caco-2 cells were seeded on Transwell filters (diameter, 12 mm; pore size, 0.4 µm; Corning). After treatment with thiostrepton (100 µM) or no treatment for 24 h, the Caco-2 cells were fixed with methanol–acetone (1:1 v/v) for 5 min and then permeabilised with 0.2% Triton X-100 in PBS for 10 min. After non-specific binding had been blocked by incubation with 1% BSA in TBS buffer (20 mM Tris-HCl, pH 7.4, 40 mM NaCl) containing 0.05% Tween-20 (T-TBS) for 1 h, the cells were incubated with anti-claudin-1, -claudin-4, -occludin and -ZO-1 antibodies in 1% BSA in T-TBS for 1 h. After incubation of the cells with fluorescent secondary antibodies for 1 h, the immunofluorescence images were observed under an immunofluorescence microscope (Keyence, Tokyo, Japan). For visualisation of biotin passing through the TJ, Caco-2 cells treated with 100 µM thiostrepton or left untreated were apically labelled with sulfo-NHS-SS-biotin (606.7 Da) for 10 min. […]

rat jejunum [9] = assay type: in vivo; details: n = 4
rat jejunum [10] = details: in vivo
[11] = test system: various human cancer cell lines; details: cited from earlier work
melanoma cells = details: cited from earlier work
breast cancer cells = details: cited from earlier work

Sequence of interaction between claudin-4 and C-CPE (O14493 whole entry, looked up): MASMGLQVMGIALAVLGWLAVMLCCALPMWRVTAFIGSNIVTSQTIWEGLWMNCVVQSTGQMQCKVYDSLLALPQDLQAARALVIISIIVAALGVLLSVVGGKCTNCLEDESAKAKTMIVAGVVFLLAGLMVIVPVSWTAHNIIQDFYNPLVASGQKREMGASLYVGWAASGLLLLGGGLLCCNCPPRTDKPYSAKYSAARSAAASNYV
Sequence of recombinant human claudin-4 protein (O14493 whole entry): as the sequence (O14493 whole entry, looked up) above

C=C(NC(=O)C(=C)NC(=O)c1csc(C2=N[C@@H]3c4csc(n4)[C@H]4NC(=O)c5csc(n5)[C@H]([C@](C)(O)[C@@H](C)O)NC(=O)[C@H]5CSC(=N5)/C(=C/C)NC(=O)[C@H]([C@@H](C)O)NC(=O)c5csc(n5)[C@]3(CC2)NC(=O)[C@H](C)NC(=O)C(=C)NC(=O)[C@H](C)NC(=O)[C@H]([C@@H](C)CC)N[C@@H]2C=Cc3c([C@H](C)O)cc(nc3[C@H]2O)C(=O)O[C@@H]4C)n1)C(N)=O [Thiostrepton]
IC50 [1]: 1.02 µM
TR-FRET (% of control), inhibition of TR-FRET signal by interaction between claudin-4 and C-CPE [1]: 66.24 % of control
Kd [2]: 6.62 µM
binding to C-CPE (C-CPE): did not bind to C-CPE
inhibition of C-CPE binding to claudin-4 on the cell membrane [3]: inhibited the binding of C-CPE to claudin-4 on the cell membrane
inhibition of C-CPE interaction with claudin-3 [4]: inhibited the interaction between C-CPE and claudin-3, but this effect was substantially weaker than that for claudin-4
TER (%) (Caco-2 cell monolayer; 10 µM, 24 h, percentage of the TER value at 0 h): 55.2%
attenuation of barrier function of Caco-2 cells, comparison among hits (Caco-2 cell monolayer; among the hit compounds, Supplementary Figure 4, 10 µM, 24 h): greatest attenuation of the barrier function of Caco-2 cells
paracellular flux of FD-4 (Caco-2 cell monolayer; thiostrepton 1–100 µM, 24 h, Caco-2 apical to basal, 100 µM FD-4 1 h, fluorescence plate reader, n = 3): dose-dependent increase in the paracellular flux of FD-4
effect on TER value of Caco-2 cells (Caco-2 cell monolayer; thiostrepton 1–100 µM, 12, 18, 24 h, then 24 h after medium change, n = 3): reversibly decreased the TER value of Caco-2 cells in a time- and dose-dependent manner
cytotoxicity to Caco-2 cells (LDH release) (Caco-2 cells): not cytotoxic to Caco-2 cells in the concentration range of 1–100 µM
claudin-1 protein, 1% Triton-X-insoluble fraction (claudin-1 [5]): unchanged
claudin-1 protein, 1% Triton-X-soluble fraction (claudin-1 [5]): significantly decreased
claudin-3 protein, 1% Triton-X-insoluble fraction (claudin-3): unchanged
claudin-3 protein, 1% Triton-X-soluble fraction (claudin-3): significantly decreased
claudin-4 protein, 1% Triton-X-insoluble fraction (claudin-4 [6]): increased
claudin-4 protein, 1% Triton-X-soluble fraction (claudin-4 [6]): increased
claudin-1 mRNA level (CLDN1): significantly decreased
claudin-3 mRNA level (CLDN3): significantly decreased
claudin-4 mRNA level (CLDN4): increased
cellular localisation of claudin-1 (claudin-1 [7]): did not alter the cellular localisation
cellular localisation of claudin-4 (claudin-4 [8]): did not alter the cellular localisation
cellular localisation of occludin (occludin): did not alter the cellular localisation
cellular localisation of ZO-1 (ZO-1): did not alter the cellular localisation
biotin permeation (Caco-2 cell monolayers): biotin signal was detected within the paracellular space
maximum plasma FD-4 concentration (rat jejunum [9]): 0.6 µg/mL
rat jejunal absorption of FD-4 (rat jejunum [9]): enhanced rat jejunal absorption of FD-4 in a dose-dependent manner
intestinal tissue toxicity (histochemical analysis) (rat jejunum [10]): no evidence of intestinal tissue toxicity
anti-tumour activity [11]: shows anti-tumour activity in various human cancer cell lines
effect on melanoma cells (melanoma cells): suppresses cell growth and induces apoptosis
effect on breast cancer cells (breast cancer cells): leads to cell-cycle arrest and cell death by down-regulating FOXM1 gene expression
